# Assay results as given in publication PMC7489219 (Molecular Brain, 2020).
# Structures can show the parent of a compound that is named as a salt.
# System: T1, primary mouse cortical neurons
# T1 construct: primary cortical neurons, DIV 10
# Experiment: cells
# Set-up: Protection from NMDA-induced (30 uM, 10 min) neuronal death; Hoechst nuclear morphology by automated microscopy
# Conditions: Cortical neurone, 20 h, read-out: % inhibition, inhibition of NMDA-induced cell death (protection score), 30 min pre-treatment
# In short: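 On DIV 10, primary mouse cortical neurons were given compound at 10 μM for 30 min at 37 °C, then 30 μM NMDA for 10 min, washed, and kept 20 h with compound. Dead cells were scored by nuclear morphology, and % protection was derived from survival relative to vehicle + NMDA and untreated controls.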
row,SMILES,inhibition at 10 µM [%]
1,C=C[C@](C)(O)CC[C@@H]1[C@@]2(C)CCCC(C)(C)[C@@H]2CC[C@@]1(C)O [Sclareol],23.8
2,CC1(C)CCC[C@]2(C)[C@H]3CC(=O)O[C@]3(C)CC[C@@H]12 [Sclareolide (Norambreinolide)],28.8
3,CN1[C@@H]2CC(OC(=O)[C@H](CO)c3ccccc3)C[C@H]1[C@@H]1O[C@@H]12 (some centres unmarked) [Scopolamine hydrobromide],-0.0258
4,c1cc2c(cc1[C@H]1OC[C@H]3[C@@H]1CO[C@@H]3c1ccc3c(c1)OCO3)OCO2 [Sesamin (Fagarol)],15.7
5,O=C(O)C1=C[C@@H](O)[C@@H](O)[C@H](O)C1 [Shikimic acid (Shikimate)],0.278
6,CCCc1nn(C)c2c(=O)[nH]c(-c3cc(S(=O)(=O)N4CCN(C)CC4)ccc3OCC)nc12 [Sildenafil citrate],4.4
7,COc1cc([C@H]2Oc3cc([C@H]4Oc5cc(O)cc(O)c5C(=O)[C@@H]4O)ccc3O[C@@H]2CO)ccc1O [Silibinin (Silybin)],8.03
8,COc1cc([C@H]2Oc3ccc([C@H]4Oc5cc(O)cc(O)c5C(=O)[C@@H]4O)cc3O[C@@H]2CO)ccc1O [Silymarin (Silybin B)],10
9,CCC(C)(C)C(=O)O[C@H]1C[C@@H](C)C=C2C=C[C@H](C)[C@H](CC[C@@H]3C[C@@H](O)CC(=O)O3)[C@H]21 [Simvastatin (Zocor)],2.21
10,O=C(O)C(O)Cc1ccc(O)c(O)c1 (centres unmarked) [Sodium Danshensu],6.44
11,CCCC(=O)O [Sodium butyrate],0.412
12,O=C1C=CC[C@@H]2[C@H]3CCCN4CCC[C@@H](CN12)[C@@H]34 [Sophocarpine],0.911
13,CNC(=O)c1cc(Oc2ccc(NC(=O)Nc3ccc(Cl)c(C(F)(F)F)c3)cc2)ccn1 [Sorafenib (Nexavar)],-5.2
14,OC[C@@H](O)[C@@H](O)[C@H](O)[C@@H](O)CO [Sorbitol (Glucitol)],3.24
15,CC(C)NCC(O)c1ccc(NS(C)(=O)=O)cc1 (centres unmarked) [Sotalol (Betapace)],-6.66
16,CN[C@@H]1[C@H](O)[C@H](NC)[C@H]2O[C@@]3(O)C(=O)C[C@@H](C)O[C@H]3O[C@@H]2[C@H]1O [Spectinomycin hydrochloride],-1.03
17,Cc1cn([C@H]2C=C[C@@H](CO)O2)c(=O)[nH]c1=O [Stavudine],6.33
18,CC[C@H](/C=C/[C@@H](C)[C@H]1CC[C@H]2[C@@H]3CC=C4C[C@@H](O)CC[C@]4(C)[C@H]3CC[C@]12C)C(C)C [Stigmasterol (Stigmasterin)],4.26
19,Nc1ccc(S(=O)(=O)Nc2ncccn2)cc1 [Sulfadiazine],17.4
20,COc1cnc(NS(=O)(=O)c2ccc(N)cc2)nc1 [Sulfameter (Bayrena)],28.2
21,Cc1cc(NS(=O)(=O)c2ccc(N)cc2)no1 [Sulfamethoxazole],-1.59
22,Nc1ccc(S(N)(=O)=O)cc1 [Sulfanilamide],17.7
23,Cc1noc(NS(=O)(=O)c2ccc(N)cc2)c1C [Sulfisoxazole],-0.221

row,SMILES,inhibition at 10 µM [%]
1,CC1=C(CC(=O)O)c2cc(F)ccc2/C1=C\c1ccc([S+](C)[O-])cc1 (centres unmarked) [Sulindac (Clinoril)],-5.67
2,CNS(=O)(=O)Cc1ccc2[nH]cc(CCN(C)C)c2c1 [Sumatriptan succinate],8.05
3,CCN(CC)CCNC(=O)c1c(C)[nH]c(/C=C2\C(=O)Nc3ccc(F)cc32)c1C [Sunitinib Malate (Sutent)],1.4
4,CNCC(O)c1ccc(O)cc1 (centres unmarked) [Synephrine (Oxedrine)],3.83
5,CN1CC(=O)N2[C@H](c3ccc4c(c3)OCO4)c3[nH]c4ccccc4c3C[C@@H]2C1=O [Tadalafil (Cialis)],0.202
6,CC/C(=C(\c1ccccc1)c1ccc(OCCN(C)C)cc1)c1ccccc1 [Tamoxifen Citrate (Nolvadex)],-8.21
7,COc1ccc(-c2cc(=O)c3c(OC)c(OC)c(OC)c(OC)c3o2)cc1 [Tangeretin (Tangeritin)],-0.746
8,Cc1coc2c1C(=O)C(=O)c1c-2ccc2c1CCCC2(C)C [Tanshinone IIA (Tanshinone B)],3.42
9,Cc1coc2c1C(=O)C(=O)c1c-2ccc2c(C)cccc12 [Tanshinone I],-5.27
10,NCCS(=O)(=O)O [Taurine],8.63
11,O=C1c2c(O)cc(O)cc2O[C@H](c2ccc(O)c(O)c2)[C@H]1O [Taxifolin (Dihydroquercetin)],12.2
12,CCOC(=O)c1ccc(C#Cc2ccc3c(c2)C(C)(C)CCS3)nc1 [Tazarotene (Avage)],38.1
13,"Cc1cn([C@@H]2C[C@@H](O)[C@H](CO)O2)c(=O)[nH]c1=O [Telbivudine (Sebivo, Tyzeka)]",23.8
14,CCCc1nc2c(C)cc(-c3nc4ccccc4n3C)cc2n1Cc1ccc(-c2ccccc2C(=O)O)cc1 [Telmisartan (Micardis)],0.71
15,CO[C@H]1C[C@@H]2CC[C@@H](C)[C@@](O)(O2)C(=O)C(=O)N2CCCC[C@H]2C(=O)O[C@H]([C@H](C)C[C@@H]2CC[C@@H](OC(=O)C(C)(CO)CO)[C@H](OC)C2)CC(=O)[C@H](C)/C=C(\C)[C@@H](O)[C@@H](OC)C(=O)[C@H](C)C[C@H](C)/C=C/C=C/C=C/1C [Temsirolimus (Torisel)],1.56
16,COc1cc([C@@H]2c3cc4c(cc3[C@@H](O[C@@H]3O[C@@H]5CO[C@@H](c6cccs6)O[C@H]5[C@H](O)[C@H]3O)[C@H]3COC(=O)[C@H]23)OCO4)cc(OC)c1O [Teniposide (Vumon)],-0.429
17,C[C@H](Cn1cnc2c(N)ncnc21)OCP(=O)(O)O [Tenofovir (Viread)],8.23
18,CCCCNc1ccc(C(=O)OCCN(C)C)cc1 [Tetracaine hydrochloride (Pontocaine)],-0.577
19,COc1ccc2cc1Oc1ccc(cc1)C[C@H]1c3cc(c(OC)cc3CCN1C)Oc1c(OC)c(OC)cc3c1[C@H](C2)N(C)CC3 [Tetrandrine (Fanchinine)],9.82
20,O=C1CCC(N2C(=O)c3ccccc3C2=O)C(=O)N1 (centres unmarked) [Thalidomide],-3.3
21,"Cn1cnc2c1c(=O)[nH]c(=O)n2C [Theobromine (3,7-Dimethylxanthine)]",0.993
22,Nc1nc2[nH]cnc2c(=S)[nH]1 [Thioguanine],13
23,O=c1oc2cc(O)ccc2s1 [Tioxolone],-0.329

row,SMILES,inhibition at 10 µM [%]
1,Cc1ccc(O)c([C@H](CCN(C(C)C)C(C)C)c2ccccc2)c1 [Tolterodine tartrate (Detrol LA)],-2.31
2,CC1(C)O[C@@H]2[C@@H](CO[C@@]3(COS(N)(=O)=O)OC(C)(C)O[C@@H]23)O1 [Topiramate],11.4
3,CC[C@@]1(O)C(=O)OCc2c1cc1n(c2=O)Cc2cc3c(CN(C)C)c(O)ccc3nc2-1 [Topotecan HCl],-1.54
4,"CN(C)CCOc1ccc(/C(=C(/CCCl)c2ccccc2)c2ccccc2)cc1 [Toremifene Citrate (Fareston, Acapodene)]",-2.81
5,Cc1cccc(Nc2ccncc2S(=O)(=O)NC(=O)NC(C)C)c1 [Torsemide (Demadex)],22
6,COc1ccc(/C=C/C(=O)Nc2ccccc2C(=O)O)cc1OC [Tranilast (SB 252218)],-11.4
7,O=c1n(CCCN2CCN(c3cccc(Cl)c3)CC2)nc2ccccn12 [Trazodone hydrochloride (Desyrel)],-1.4
8,CC1=C(/C=C/C(C)=C/C=C/C(C)=C/C(=O)O)C(C)(C)CCC1 [Tretinoin (Aberela)],-38.4
9,C[C@]12C=CC(=O)C=C1CC[C@H]1[C@@H]3C[C@@H](O)[C@](O)(C(=O)CO)[C@@]3(C)C[C@H](O)[C@@]12F [Triamcinolone (Aristocort)],16.3
10,CC1(C)O[C@@H]2C[C@H]3[C@@H]4CCC5=CC(=O)C=C[C@]5(C)[C@@]4(F)[C@@H](O)C[C@]3(C)[C@]2(C(=O)CO)O1 [Triamcinolone acetonide],59.8
11,O=c1[nH]c(=O)n([C@H]2C[C@H](O)[C@@H](CO)O2)cc1C(F)(F)F [Trifluridine (Viroptic)],9.42
12,C[C@]12CC[C@H]3[C@@H](CC[C@@]45O[C@@H]4C(O)=C(C#N)C[C@]35C)[C@@H]1CC[C@@H]2O [Trilostane],4.15
13,CC(C)[C@]12O[C@H]1[C@@H]1O[C@]13[C@]1(O[C@H]1C[C@H]1C4=C(CC[C@@]13C)C(=O)OC4)[C@@H]2O [Triptolide],-1.79
14,CN1[C@@H]2CC[C@H]1C[C@@H](OC(=O)c1c[nH]c3ccccc13)C2 [Tropisetron],-4.08
15,O=C(OC1C[C@H]2CC[C@@H](C1)[N+]21CCCC1)C(O)(c1ccccc1)c1ccccc1 (some centres unmarked) [Trospium chloride (Sanctura)],7.49
16,C[C@@H]1O[C@@H](OC[C@H]2O[C@@H](Oc3c(-c4ccc(OCCO)c(OCCO)c4)oc4cc(OCCO)cc(O)c4c3=O)[C@H](O)[C@@H](O)[C@@H]2O)[C@H](O)[C@H](O)[C@H]1O [Troxerutin],23.8
17,C[C@H](CCC(=O)O)[C@H]1CC[C@H]2[C@@H]3[C@@H](O)C[C@@H]4C[C@H](O)CC[C@]4(C)[C@H]3CC[C@]12C [Ursodiol (Actigal Urso)],35.3
18,C[C@H]1[C@H](C)CC[C@]2(C(=O)O)CC[C@]3(C)C(=CC[C@@H]4[C@@]5(C)CC[C@H](O)C(C)(C)[C@@H]5CC[C@]43C)[C@H]12 [Ursolic acid (Malol)],6.94
19,CCCCC(=O)N(Cc1ccc(-c2ccccc2-c2nn[nH]n2)cc1)[C@H](C(=O)O)C(C)C [Valsartan (Diovan)],-0.714
20,COc1cc2/c(=N/c3ccc(Br)cc3F)nc[nH]c2cc1OCC1CCN(C)CC1 [Vandetanib (Zactima)],-8.86
21,COc1cc(C=O)ccc1O [Vanillin],-1.73
22,COc1cc(CCC(C)=O)ccc1O [Vanillylacetone],7.76
